According to US20250115571A1, “OXOPIPERAZINE DERIVATIVES” (Inthera Bioscience AG, priority 2017, published 2025):

Experiments:
HCT116 = experiment: 9-day colony survival assay (CFA); type: cell-based; conditions: Homo sapiens, HCT-116, 216 h, HCT116 (colon), read-out: GI50 (50% growth inhibition)
PC3 = experiment: 9-day colony survival assay (CFA); type: cell-based; conditions: Homo sapiens, PC-3, 216 h, PC3 (prostate), read-out: GI50 (50% growth inhibition)
[1] = test system: hormone-refractory DU-145 human prostate cancer cells; experiment: Cell-derived xenograft mouse model for prostate cancer (DU-145 CDX); type: in vivo; conditions: 3 mg/kg, p.o. QD × 4 weeks
Description: Male BALB/c nude mice (7-9 weeks of age) were injected with hormone-refractory DU-145 human prostate cancer cells. The cells were inoculated subcutaneously into the left flank of 48 mice. When tumors reached a mean volume of approximately 105 mm^3, mice were randomly assigned to eight treatment groups of each six mice (TABLE 12). Body weights were measured three times weekly prior to the initiation of dosing and daily thereafter. Tumor burden was assessed by caliper measurement three times weekly. Dosing breaks were applied when tolerability issues arose (body weight loss>10%). The study was terminated 4 weeks post first dosing. The experiment was performed in the Crown Bioscience Ltd. (Beijing) testing facility (Ground Floor, Light Muller Building, Changping Sector of Zhongguancun Scientific Park, No. 21 Huoju Road, Changping District, Beijing, CHIN).

[2] = test system: MKN45 human gastric adenocarcinoma cells; experiment: Cell-derived xenograft mouse model for gastric cancer (MKN45 CDX); type: in vivo; conditions: 6 mg/kg, QD, p.o.
Description: Female BALB/c nude mice (8-9 weeks of age) were injected with MKN45 human gastric adenocarcinoma cells. The cells were inoculated subcutaneously into the left flank of 48 mice. When tumors reached a mean volume of approximately 103 mm^3, mice were randomly assigned to eight treatment groups of each six mice (TABLE 16). Body weights were measured three times weekly prior to the initiation of dosing and daily thereafter. Tumor burden was assessed by caliper measurement twice weekly. Dosing breaks were applied when tolerability issues arose (body weight loss>10%). The study was terminated four weeks post first dosing. The experiment was performed in the Crown Bioscience Ltd. (Beijing) testing facility (Ground Floor, Light Muller Building, Changping Sector of Zhongguancun Scientific Park, No. 21 Huoju Road, Changping District, Beijing, CHN).

A549 = experiment: 9-day colony survival assay (CFA); type: cell-based; conditions: Homo sapiens, 216 h, A549 (lung), read-out: GI50 (50% growth inhibition)
CaSki = experiment: 9-day colony survival assay (CFA); type: cell-based; conditions: Homo sapiens, Ca-Ski, 216 h, CaSki (cervix), read-out: GI50 (50% growth inhibition)
From the text: Cell culture. CaSki cells (cervical cancer) were obtained from CLS GmbH, Eppelheim, Germany (cat #300145) and subcultured in ready-to-use RPMI1640 Media (CLS #820700) after addition of “Antibiotic Antimycotic Solution” (Sigma-Aldrich, St Louis, USA) at 1:100 dilution. The cells were expanded, and aliquots kept frozen in liquid nitrogen according to manufacturer's instructions; tested for mycoplasma contamination and genotyped (Microsynth AG, Balgach, Switzerland). Once thawed, aliquots were passaged every second or third day at a seed density of 20′000 cells/cm^2; and used for a maximum of twenty passages. For passaging, cell culture flasks were rinsed twice with Ca++/Mg++-free Phosphate-Buffered Saline (DPBS, CLS #860015) and incubated with Accutase (CLS #830100) for 15 min at 37° C. Cells were resuspended in a four-fold volume of ready-to-use RPMI, centrifuged at 300 g for ten minutes, the supernatant discarded and the cells resuspended in ready-to-use RPMI1640 by pipetting up and down five times with a serological pipette. Cell density was determined with a Via-1 Cassette (Chemometec, Allerod, Denmark) on a Nucleocounter NC 3000 (Chemometec). Where not stated, consumables and chemicals were purchased from well-known suppliers.
Preparation of the cells for CFA. Cell culture flasks were rinsed twice with DPBS and incubated with Accutase for 15 min at 37° C. Cells were resuspended in a four-fold volume of ready-to use RPMI, centrifuged at 300 g for ten minutes, the supernatant discarded and the cells resuspended in ready-to-use RPMI1640 by pipetting up and down ten times with a serological pipette. Cell density was determined with a Via-1 Cassette on a Nucleocounter NC 3000. The required amount of cells was first diluted 1:10 in ready-to-use RPMI; cells pipetted five times up-down with a serological pipette; and the 1:10 solution added to the final volume needed for the whole assay setup. Cells were mixed again by pipetting up and down twenty times with a serological pipette. The cell density used for the experiment was of 140 cells/ml.
Seeding. Cells were seeded row-wise in 12-well plates, while triplicates were treated column-wise (i.e. all the first rows were seeded first, then the second rows, and finally the third rows). One and a half ml cell suspension solution (a total of 210 cells) were added per well.
Treatment. Compound stock solutions were prepared at a concentration of 30 mM in 50% DMSO/50% water; and diluted in the same solution so that the volume added to the wells was of 2.5 μl and the final DMSO well concentration of 0.08%. Untreated cells (negative controls) were incubated in a) medium only; and b) 0.08% DMSO. […] The plates were swirled gently after addition of the compounds and the cells incubated for nine days at 37° C. Culture incubation solutions were replaced after five days.
Staining. Colonies were washed twice with ice-cold DPBS and fixed on ice with 1 ml ice-cold 10% methanol solution for 30 min. The methanol solution was removed and colonies incubated with 0.1% Crystal Violet/DBPS for 20 min at room temperature. The wells were rinsed consecutively with 1.5, 1, and 0.5 ml water at room temperature and let dry.
Destaining and data evaluation. […] Absorbance was measured at 600 nm with a SpectraMax M2e reader (Molecular Devices, Sunnyvale, CA, USA). Percentage of colony formation was calculated from the average of the well triplicates compared to the untreated DMSO controls after subtraction of blank values. […]

Structure (SMILES): CC(C)C[C@@H]1NCCN([C@@H](CC(C)C)C(=O)N2CCC3(C[C@@H]2C)OCC(CN2CCC(C)CC2)CO3)C1=O (stereo partly drawn) [Compound 253, (3S)-1-[(2S)-4-methyl-1-oxo-1-[(3s,6s,8S)-8-methyl-3-[(4-methylpiperidin-1-yl)methyl]-1,5-dioxa-9-azaspiro[5.5]undec-an-9-yl]pentan-2-yl]-3-(2-methylpropyl)piper-azin-2-one (^≠), isomer Z]
- GI50 (HCT116): 2 nM
- GI50 (PC3): 4 nM
- Tumor Size day 35 (Mean ± SEM) [1]: 480 ± 49 mm^3
- T/C (tumor-to-control ratio, volume/volume) ([1]; day 35): 69.3%
- Tumor Size day 29 ([2]; MKN45 CDX, female BALB/c nude mice, Mean ± SEM): 506.5 ± 71.0 mm^3
- T/C ([2]; day 29, tumor-to-control ratio (volume/volume)): 42.6%
- GI50 (A549): 7 nM
- GI50 (CaSki): 4.5 nM
